Experimental data taken from patent publication US12624023B2, “Sulfonylurea derivatives and uses thereof” (NodThera Limited, priority 2019, dated 2026).

Columns and labels:
[1] = tested on: IL-1β release upon NLRP3 activation in peripheral blood mononuclear cells (PBMC); assay: PBMC IC50 determination assay (IL-1β release, LPS priming + ATP stimulation, HTRF); type: cell-based; settings: PBMC from buffy coats; LPS 1 μg/ml 3 h, compound 30 min, ATP 5 mM 1 h; IL-1β by HTRF
Procedure: The compounds of the present disclosure were tested for their inhibitory activity against IL-1β release upon NLRP3 activation in peripheral blood mononuclear cells (PBMC).
PBMC were isolated from buffy coats by density gradient centrifugation on Histopaque-1077 (Sigma, cat no. 10771). Isolated cells were seeded into the wells (280,000 cells/well) of a 96-well plate and incubated for 3 h with lipopolysaccharide (LPS, 1 μg/ml diluted 1000× from a 1 mg/ml stock solution). The compounds of the present disclosure were added (a single compound per well) and the cells were incubated for 30 min. Next, the cells were stimulated with ATP (5 mM final concentration diluted 20× from a 100 mM stock solution) for 1 h and the cell culture media from the wells were collected for further analysis.
(§1) The release of IL-1β into the media was determined by quantitative detection of IL-1β in the media using HTRF®, CisBio cat. No. 62HIL1BPEH. Briefly, cell culture supernatant were dispensed directly into the assay plate containing antibodies labelled with the HTRF® donor and acceptor. A microplate spectrophotometer (BMG) was used to detect signals at 655 nm and 620 nm. The detection range of IL-1β HTRF® was 39-6500 μg/ml.

[2] = tested on: IL-1β release upon NLRP3 activation in human whole blood; assay: Whole blood (WB) assay (IL-1β release, LPS priming + ATP stimulation, HTRF); type: cell-based; settings: heparin, diluted 9:5 with media, LPS 1 μg/ml 3 h, compound 30 min, ATP 5 mM 1 h, IL-1β by HTRF
Procedure: The compounds of the present disclosure were tested for their inhibitory activity against IL-1β release upon NLRP3 activation in human whole blood.
Whole blood was drawn from single healthy donors and treated with sodium heparin anticoagulant. Blood was diluted with cell culture media at a 9:5 ratio, seeded in a 96-well plate and incubated for 3 h with lipopolysaccharide (LPS, 1 μg/ml final concentration diluted 1000× from a 1 mg/ml stock solution). The compounds of the present disclosure were added (a single compound concentration per well) and the blood was incubated for 30 min. Next, the blood was stimulated with ATP (5 mM final concentration diluted 20× from a 100 mM stock solution) for 1 h and the cell culture media from the wells were collected for further analysis.
as §1, with “were diluted as appropriate to bring IL-1β levels within the HTRF® detection range ([…]) and subsequently” for “were”, “dispensed” for “dispensed directly”, “nm.” for “nm. The detection range of IL-1β HTRF® was 39-6500 μg/ml.”

IC50 [2] [nM] | Compound | IC50 [1] [nM]
< 1000 | CCc1sc(C(C)C)cc1NC(=O)NS(=O)(=O)N(c1cnn(C)c1)[C@@H]1CCCN(C)C1 [Compound 58, 3-[2-Ethyl-5-(propan-2-yl)thiophen-3-yl]-1-[(1-methyl-1H-pyrazol-4-yl)[(3R)-1-methylpiperidin-3-yl]sulfamoyl]urea] | < 100
1000 to 3000 | CC(C)c1cc(NC(=O)NS(=O)(=O)N(c2cnn(C3CC3)c2)[C@@H]2CCCN(C)C2)c(C(C)C)s1 [Compound 59, 3-[2,5-Bis(propan-2-yl)thiophen-3-yl]-1-[(1-cyclopropyl-1H-pyrazol-4-yl)-[(3R)-1-methylpiperidin-3-yl]sulfamoyl]urea] | < 100
< 1000 | CC(C)c1sc(Cl)cc1NC(=O)NS(=O)(=O)N(c1cnn(C)c1)[C@@H]1CCCN(C)C1 [Compound 60, 3-[5-Chloro-2-(propan-2-yl)thiophen-3-yl]-1-[(1-methyl-1H-pyrazol-4-yl)-[(3R)-1-methylpiperidin-3-yl]sulfamoyl]urea] | < 100
3000 to 10000 | CCc1cc(NC(=O)NS(=O)(=O)N(c2cnn(C)c2)[C@@H]2CCCN(C)C2)c(C(C)C)s1 [Compound 61, 3-[5-Ethyl-2-(propan-2-yl)thiophen-3-yl]-1-[(1-methyl-1H-pyrazol-4-yl)[(3R)-1-methylpiperidin-3-yl]sulfamoyl]urea] | < 100
1000 to 3000 | CCc1cc(NC(=O)NS(=O)(=O)N(C[C@@H]2C[C@@H](F)CN2C)c2cnn(C)c2)c(CC)o1 [Compound 62, 1-(2,5-Diethylfuran-3-yl)-3-({[(2S,4R)-4-fluoro-1-methylpyrrolidin-2-yl]methyl}(1-methyl-1H-pyrazol-4-yl)sulfamoyl)urea] | 500 to 1000
10000 to 20000 | CCc1cc(NC(=O)NS(=O)(=O)N(CCN(C)C)c2cnn(C(C)C)c2)c(CC)o1 [Compound 64, 3-(2,5-Diethylfuran-3-yl)-1-{[2-(dimethylamino)ethyl][1-(propan-2-yl)-1H-pyrazol-4-yl]sulfamoyl}urea] | 1000 to 5000
> 20000 | CCc1cc(NC(=O)NS(=O)(=O)N(c2cnn(C)c2)C2CCOCC2)c(CC)o1 [Compound 65, 3-(2,5-Diethylfuran-3-yl)-1-[(1-methyl-1H-pyrazol-4-yl)(oxan-4-yl)sulfamoyl]-urea] | 1000 to 5000
< 1000 | Cc1cc(NC(=O)NS(=O)(=O)N(c2cnn(C)c2)[C@@H]2CCCN(C)C2)c(C(C)C)s1 [Compound 66, 1-[(1-Methyl-1H-pyrazol-4-yl)[(3R)-1-methylpiperidin-3-yl]sulfamoyl]-3-[5-methyl-2-(propan-2-yl)thiophen-3-yl]urea] | < 100
< 1000 | Cc1c(C(C)C)sc(C(C)C)c1NC(=O)NS(=O)(=O)N(c1cnn(C)c1)[C@@H]1CCCN(C)C1 [Compound 67, 1-[(1-Methyl-1H-pyrazol-4-yl)[(3R)-1-methylpiperidin-3-yl]sulfamoyl]-3-[4-methyl-2,5-bis(propan-2-yl)thiophen-3-yl]urea] | 100 to 500
> 20000 | CCc1cc(NC(=O)NS(=O)(=O)N(C2CCOC2)C2CCCN(C)C2)c(CC)s1 (centres unmarked) [Compound 69, 3-(2,5-Diethylthiophen-3-yl)-1-[(1-methylpiperidin-3-yl)(oxolan-3-yl)-sulfamoyl]urea] | > 10000
< 1000 | CC(C)c1sc2c(c1NC(=O)NS(=O)(=O)N(c1cnn(C)c1)[C@@H]1CCCN(C)C1)CCC2 [Compound 70, 1-[(1-Methyl-1H-pyrazol-4-yl)[(3R)-1-methylpiperidin-3-yl]sulfamoyl]-3-[2-(propan-2-yl)-4H,5H,6H-cyclopenta[b]thiophen-3-yl]urea] | 100 to 500
1000 to 3000 | CCc1cc(NC(=O)NS(=O)(=O)N(c2cnn(C(C)C)c2)[C@@H]2CCCN(C)C2)c(CC)o1 [Compound 71, 3-(2,5-Diethylfuran-3-yl)-1-{[(3R)-1-methylpiperidin-3-yl][1-(propan-2-yl)-1H-pyrazol-4-yl]sulfamoyl}urea] | 100 to 500
< 1000 | CC(C)c1cc(NC(=O)NS(=O)(=O)N(c2cnn(C)c2)C2CCCN(C)C2)c(C(C)C)o1 (centres unmarked) [Compound 73, 3-[2,5-Bis(propan-2-yl)furan-3-yl]-1-[(1-methyl-1H-pyrazol-4-yl)(1-methylpiperidin-3-yl)sulfamoyl]urea] | < 100
3000 to 10000 | CC(C)c1cc(NC(=O)NS(=O)(=O)N(CCN(C)C)c2cnn(C)c2)c(C(C)C)o1 [Compound 75, 3-[2,5-Bis(propan-2-yl)furan-3-yl]-1-{[2-(dimethylamino)ethyl](1-methyl-1H-pyrazol-4-yl)sulfamoyl}urea] | 100 to 500
3000 to 10000 | CC(C)c1cc(NC(=O)NS(=O)(=O)N(c2cnn(C)c2)[C@@H]2C[C@H](F)CN(C)C2)c(C(C)C)s1 [Compound 76, 3-[2,5-Bis(propan-2-yl)thiophen-3-yl]-1-{[(3R,5S)-5-fluoro-1-methylpiperidin-3-yl](1-methyl-1H-pyrazol-4-yl)sulfamoyl}urea] | 100 to 500
< 1000 | CCc1sc2c(c1NC(=O)NS(=O)(=O)N(c1cnn(C)c1)C1CCCN(C)C1)CCC2 (centres unmarked) [Compound 77, 3-{2-Ethyl-4H,5H,6H-cyclopenta[b]thiophen-3-yl}-1-[(1-methyl-1H-pyrazol-4-yl)(1-methylpiperidin-3-yl)sulfamoyl]urea] | < 100
1000 to 3000 | CCc1oc(C(C)C)cc1NC(=O)NS(=O)(=O)N(c1cnn(C)c1)C1CCCN(C)C1 (centres unmarked) [Compound 78, 3-[2-Ethyl-5-(propan-2-yl)furan-3-yl]-1-[(1-methyl-1H-pyrazol-4-yl)(1-methyl-piperidin-3-yl)sulfamoyl]urea] | 500 to 1000
< 1000 | CCc1cc(NC(=O)NS(=O)(=O)N(c2cnn(C)c2)C2CCCN(C)C2)c(C(C)C)o1 (centres unmarked) [Compound 79, 3-[5-Ethyl-2-(propan-2-yl)furan-3-yl]-1-[(1-methyl-1H-pyrazol-4-yl)(1-methyl-piperidin-3-yl)sulfamoyl]urea] | < 100
< 1000 | CC(C)c1sc(Cl)cc1NC(=O)NS(=O)(=O)N(c1cnn(C)c1)[C@H]1CCCN(C)C1 [Compound 80, 3-[5-Chloro-2-(propan-2-yl)thiophen-3-yl]-1-[(1-methyl-1H-pyrazol-4-yl)[(3S)-1-methylpiperidin-3-yl]sulfamoyl]urea] | < 100
< 1000 | Cc1cc(NC(=O)NS(=O)(=O)N(c2cnn(C)c2)[C@H]2CCCN(C)C2)c(C(C)C)s1 [Compound 81, 1-[(1-Methyl-1H-pyrazol-4-yl)[(3S)-1-methylpiperidin-3-yl]sulfamoyl]-3-[5-methyl-2-(propan-2-yl)thiophen-3-yl]urea] | < 100
1000 to 3000 | CC(C)c1cc(NC(=O)NS(=O)(=O)N(c2cnn(C)c2)[C@@H]2C[C@@H](F)CN(C)C2)c(C(C)C)s1 [Compound 82, 3-[2,5-Bis(propan-2-yl)thiophen-3-yl]-1-{[(3R,5R)-5-fluoro-1-methylpiperidin-3-yl](1-methyl-1H-pyrazol-4-yl)sulfamoyl}urea] | < 100
1000 to 3000 | CC(C)c1cc(NC(=O)NS(=O)(=O)N(CCN(C)C)c2cnn(C(C)C)c2)c(C(C)C)o1 [Compound 83, 1-[2,5-Bis(propan-2-yl)furan-3-yl]-3-{[2-(dimethylamino)ethyl][1-(propan-2-yl)-1H-pyrazol-4-yl]sulfamoyl}urea] | 100 to 500
< 1000 | CC(C)c1cc(NC(=O)NS(=O)(=O)N(c2cnn(C(C)C)c2)[C@H]2CCCN(C)C2)c(C(C)C)s1 [Compound 84, 3-[2,5-Bis(propan-2-yl)thiophen-3-yl]-1-{[(3S)-1-methylpiperidin-3-yl][1-(propan-2-yl)-1H-pyrazol-4-yl]sulfamoyl}urea] | < 100
< 1000 | CC(C)c1sc2c(c1NC(=O)NS(=O)(=O)N(c1cnn(C)c1)[C@H]1CCCN(C)C1)CCC2 [Compound 85, 1-[(1-Methyl-1H-pyrazol-4-yl)[(3S)-1-methylpiperidin-3-yl]sulfamoyl]-3-[2-(propan-2-yl)-4H,5H,6H-cyclopenta[b]thiophen-3-yl]urea] | < 100
1000 to 3000 | CCc1sc2c(c1NC(=O)NS(=O)(=O)N(c1cnn(C)c1)C1CCCN(C)C1)CCCC2 (centres unmarked) [Compound 86, 3-(2-Ethyl-4,5,6,7-tetrahydro-1-benzothiophen-3-yl)-1-[(1-methyl-1H-pyrazol-4-yl)(1-methylpiperidin-3-yl)sulfamoyl]urea] | 100 to 500
